Experimental data from patent publication US5902826A, “Platinum (IV) complex and pharmaceutical composition comprising the same” (SS Pharmaceutical Co., Ltd., priority 1997, dated 1999).

Assays:
[1] = tested on: mouse M5076 tumor (M5076 reticulosarcoma); assay: Antitumor effect on mouse M5076 tumor (M5076 reticulosarcoma), s.c.-p.o.; type: in vivo; conditions: for TI (therapeutic index): calculated from LD50 (single i.p.) and ID50 (p.o.); for dosage of GImax (in parentheses): dosage giving GImax, no mortal case; for dosage of GImax (in parentheses) / ID50 (dosage by which the GI value after 5 administrations shows 50%): p.o. once a day for 5 days; for GImax (maximum growth inhibition rate in the dosage range by which no mortal case can be found): male BDF1 mouse, 1×10^6 cells s.c., drug p.o. once a day for 5 days, 30 days of observation, average tumor weights vs non-treated group; for ID50 (dosage by which the GI value after 5 administrations shows 50%): calculated from linear regression line of GI at each dosage
Protocol: Test on antitumor effect on mouse M5076 tumor
A total of 1×10^6 cells of mouse M5076 tumor were transplanted subcutaneously (s.c.) of a 6-week age male BDF1 mouse, a drug (compound of the present invention) was administered orally (p.o.) once a day for 5 days starting on the next day and then, after 30 days of observation, growth inhibition rate (GI) was calculated from the average tumor weights in the drug-treated group and the non-treated group. […] Each of the drugs to be tested was prepared just before its use by dissolving or suspending the drug (compound of the present invention) in olive oil using a handy sonicator. The dosage was 0.1 ml per 10 g mouse body weight. In Table 1, GImax is the maximum value (%) of GI in the dosage range by which no mortal case can be found, and its dosage (mg/kg) is shown in parentheses.

[2] = LD50 (50% lethal dose by single intraperitoneal administration); type: in vivo, mouse; conditions: 50% lethal dose by single intraperitoneal administration, obtained at the time of dose setting
[3] = background statement, derivative of cisplatin; cited from earlier work
[4] = background statement, cited from earlier work

Compound | TI (therapeutic index) [1] | dosage of GImax (in parentheses) [1] | GImax (maximum growth inhibition rate in the dosage range by which no mortal case can be found) [1] | ID50 (dosage by which the GI value after 5 administrations shows 50%) [1] | LD50 [2] | solubility in water [3] | renal toxicity ([4]; derivative of cisplatin) | nephropathy as a side effect [4]
1,1-cyclobutanedicarboxylato trans-dihydroxo (1,3-diamino-2-propanol)platinum (IV) [Compound 1] | > 25.0 | 32.0 mg/kg | 95.6% | < 8.0 mg/kg | > 200.0 mg/kg |  |  | 
N.N.O=C([O-])C1(C(=O)[O-])CCC1.[Pt+2] [Carboplatin, carboplatin, reference compound] | 2.0 | 256.0 mg/kg | 75.3% | 119.9 mg/kg | 245.0 mg/kg | increased solubility in water | reduced renal toxicity | 
N.N.[Cl][Pt][Cl] [Cisplatin, cisplatin, reference compound] |  | 8.0 mg/kg | 74.5% | 3.2 mg/kg |  |  |  | sometimes causes serious nephropathy
O=C(OC1C[NH2+][Pt-2]2([O]C(=O)C(F)(F)F)([O]C(=O)C(F)(F)F)([NH2+]C1)[O]C(=O)C1(CCC1)C(=O)[O]2)C(F)(F)F (stereo not drawn) [Compound 11, 1,1-cyclobutanedicarboxylato trans-bis(trifluoroacetato) (O-trifluoroacetyl-1,3-diamino-2-propanol)platinum (IV)] | 17.3 | 32.0 mg/kg | 86.5% | 10.2 mg/kg | 176.5 mg/kg |  |  | 
O=C([O][Pt-2]12([O]C(=O)C(F)(F)F)([NH2+]CC(O)C[NH2+]1)[O]C(=O)C1(CCC1)C(=O)[O]2)C(F)(F)F (stereo not drawn) [Compound 18, 1,1-cyclobutanedicarboxylato trans-bis(trifluoroacetato) (1,3-diamino-2-propanol)platinum (IV)] | 18.4 | 32.0 mg/kg | 95.6% | 9.6 mg/kg | 176.8 mg/kg |  |  | 
trans-bis (acetato) 1,1-cyclobutanedicarboxylato (1,3-diamino-2-propanol) platinum (IV) [Compound 5] | 9.2 | 64.0 mg/kg | 61.4% | 38.4 mg/kg | 353.0 mg/kg |  |  | 
